# According to ChEMBL document CHEMBL6087458, “The Discovery of a Novel AXL/Triple Angiokinase Inhibitor Based on 6-Chloro-Substituted Indolinone and Side Chain Methyl Substitution Inhibiting Pancreatic Cancer Growth and Metastasis” (J Med Chem, 2025):
# Experiments:
# [1] = system: BXPC-3; assay: cells; conditions: Homo sapiens, BXPC-3, 72 h
# Description: Antiproliferative activity against human BXPC-3 cells assessed as cell viability incubated for 72 hrs by MTT assay
# [2] = system: MDA-MB-231; assay: cells; conditions: Homo sapiens, MDA-MB-231, 72 h
# Description: Antiproliferative activity against human MDA-MB-231 cells assessed as cell viability incubated for 72 hrs by MTT assay
# [3] = Cytotoxicity against human HUVEC cells assessed as cell viability incubated for 72 hrs by MTT assay; assay type: toxicity, cell-based
# [4] = Cytotoxicity against mouse NIH/3T3 cells assessed as cell viability incubated for 72 hrs by MTT assay; assay type: toxicity, cell-based, NIH3T3
# [5] = system: A549; assay: cells; conditions: Homo sapiens, A549, 72 h
# Description: Antiproliferative activity against human A549 cells assessed as cell viability incubated for 72 hrs by MTT assay
SMILES,IC50 [1] [µM],IC50 [2] [µM],IC50 [5] [µM],IC50 at 72 h [3] [µM],IC50 at 72 h [4] [µM]
COC(=O)c1ccc2c(c1)NC(=O)/C2=C(\Nc1ccc(N(C)C(=O)CN2CCOCC2)cc1)c1ccccc1,> 10,> 10,,> 10,> 10
CC(C(=O)N(C)c1ccc(N/C(=C2\C(=O)Nc3cc(Br)ccc32)c2ccccc2)cc1)N(C)CCN(C)C (racemic),3.74,4.54,,1.77,0.77
COC(=O)c1ccc2c(c1)NC(=O)/C2=C(\Nc1ccc(N(C)C(=O)CN(C)CCN(C)C)cc1)c1ccccc1,6.01,> 10,,2.97,3.57
COC(=O)c1ccc2c(c1)NC(=O)/C2=C(\Nc1ccc(N(C)C(=O)C(C)N2CCOCC2)cc1)c1ccccc1 (racemic),> 10,> 10,,> 10,> 10
CN(C(=O)CN1CCC(N(C)C)CC1)c1ccc(N/C(=C2\C(=O)Nc3cc(Br)ccc32)c2ccccc2)cc1,3.02,2.97,,1.94,2.31
COC(=O)c1ccc2c(c1)NC(=O)/C2=C(\Nc1ccc(N(C)C(=O)C(C)N(C)CCN(C)C)cc1)c1ccccc1 (racemic),5.78,5.98,,2,2.57
COC(=O)c1ccc2c(c1)NC(=O)/C2=C(\Nc1ccc(N(C)C(=O)CN2CCCN(C)CC2)cc1)c1ccccc1,3.73,7.83,,2.91,3.82
COC(=O)c1ccc2c(c1)NC(=O)/C2=C(\Nc1ccc(N(C)C(=O)CN2CCC(N(C)C)CC2)cc1)c1ccccc1,2.56,6.34,,2.97,3.51
CC(=O)O[C@H]1C(=O)[C@@]2(C)[C@H]([C@H](OC(=O)c3ccccc3)[C@]3(O)C[C@H](OC(=O)[C@H](O)[C@@H](NC(=O)c4ccccc4)c4ccccc4)C(C)=C1C3(C)C)[C@]1(OC(C)=O)CO[C@@H]1C[C@@H]2O [PACLITAXEL],,,1.34,,
COC(=O)c1ccc2c(c1)NC(=O)/C2=C(\Nc1ccc(N(C)C(=O)[C@@H](C)N2CCN(C)CC2)cc1)c1ccccc1,,,,1.36,3.75
CC(C(=O)N(C)c1ccc(N/C(=C2\C(=O)Nc3cc(Cl)ccc32)c2ccccc2)cc1)N1CCC(N(C)C)CC1 (racemic),2.04,1.98,,0.83,0.98
CN(C)CCN(C)CC(=O)N(C)c1ccc(N/C(=C2\C(=O)Nc3cc(Br)ccc32)c2ccccc2)cc1,4.22,4.96,,4.71,5.89
COC(=O)c1ccc2c(c1)NC(=O)/C2=C(\Nc1ccc(N(C)C(=O)[C@H](C)N2CCN(C)CC2)cc1)c1ccccc1,,,,1.65,1.17
COC(=O)c1ccc2c(c1)NC(=O)/C2=C(\Nc1ccc(N(C)C(=O)C(C)N2CCC(N(C)C)CC2)cc1)c1ccccc1 (racemic),1.69,5.54,,1.08,1.99
CN1CCCN(CC(=O)N(C)c2ccc(N/C(=C3\C(=O)Nc4cc(Cl)ccc43)c3ccccc3)cc2)CC1,3.14,3.87,,4.98,4.52
CCN1CCN(CC(=O)N(C)c2ccc(N/C(=C3\C(=O)Nc4cc(C(=O)OC)ccc43)c3ccccc3)cc2)CC1,2.31,5.98,,2.72,3.44

# Further lines, with some results ahead:
IC50 [1] [µM],IC50 [2] [µM],IC50 [5] [µM],SMILES,IC50 at 72 h [3] [µM],IC50 at 72 h [4] [µM]
> 10,> 10,,CC(C(=O)N(C)c1ccc(N/C(=C2\C(=O)Nc3cc(Br)ccc32)c2ccccc2)cc1)N1CCSCC1 (racemic),> 10,> 10
1.66,5.78,,COC(=O)c1ccc2c(c1)NC(=O)/C2=C(\Nc1ccc(N(C)C(=O)C(C)N2CCCN(C)CC2)cc1)c1ccccc1 (racemic),1.81,2.93
1.54,1.35,,CN(C(=O)CN1CCN(CCO)CC1)c1ccc(N/C(=C2\C(=O)Nc3cc(Cl)ccc32)c2ccccc2)cc1,1.65,2.2
> 10,> 10,,CN(C(=O)CN1CCOCC1)c1ccc(N/C(=C2\C(=O)Nc3cc(Br)ccc32)c2ccccc2)cc1,> 10,> 10
1.64,5.07,,CCN1CCN(C(C)C(=O)N(C)c2ccc(N/C(=C3\C(=O)Nc4cc(C(=O)OC)ccc43)c3ccccc3)cc2)CC1 (racemic),1.5,2.1
2.31,2.06,,CC(C(=O)N(C)c1ccc(N/C(=C2\C(=O)Nc3cc(Br)ccc32)c2ccccc2)cc1)N1CCN(CCO)CC1 (racemic),1.98,2.11
2.15,3.29,,CN1CCCN(CC(=O)N(C)c2ccc(N/C(=C3\C(=O)Nc4cc(Br)ccc43)c3ccccc3)cc2)CC1,3.19,5.98
1.95,1.86,,CC(C(=O)N(C)c1ccc(N/C(=C2\C(=O)Nc3cc(Br)ccc32)c2ccccc2)cc1)N1CCCN(C)CC1 (racemic),2.15,3.9
3.57,3.21,,CN(C(=O)CN1CCN(CCO)CC1)c1ccc(N/C(=C2\C(=O)Nc3cc(Br)ccc32)c2ccccc2)cc1,2.49,2.95
1.78,3.19,,CCN1CCN(CC(=O)N(C)c2ccc(N/C(=C3\C(=O)Nc4cc(Cl)ccc43)c3ccccc3)cc2)CC1,1.85,1.95
> 10,> 10,,CC(C(=O)N(C)c1ccc(N/C(=C2\C(=O)Nc3cc(Cl)ccc32)c2ccccc2)cc1)N1CCOCC1 (racemic),> 10,> 10
2.44,2.47,,CCN1CCN(C(C)C(=O)N(C)c2ccc(N/C(=C3\C(=O)Nc4cc(Br)ccc43)c3ccccc3)cc2)CC1 (racemic),0.67,1.87
3.57,3.91,,CCN1CCN(CC(=O)N(C)c2ccc(N/C(=C3\C(=O)Nc4cc(Br)ccc43)c3ccccc3)cc2)CC1,1.57,3.2
> 10,> 10,,COC(=O)c1ccc2c(c1)NC(=O)/C2=C(\Nc1ccc(N(C)C(=O)C(C)N2CCNCC2)cc1)c1ccccc1 (racemic),> 10,> 10
> 10,> 10,,COC(=O)c1ccc2c(c1)NC(=O)/C2=C(\Nc1ccc(N(C)C(=O)C(C)N2CCSCC2)cc1)c1ccccc1 (racemic),> 10,> 10
1.89,1.44,,CC(C(=O)N(C)c1ccc(N/C(=C2\C(=O)Nc3cc(Br)ccc32)c2ccccc2)cc1)N1CCN(C)CC1 (racemic),0.95,2.14
2.98,4.54,,CN1CCN(CC(=O)N(C)c2ccc(N/C(=C3\C(=O)Nc4cc(Cl)ccc43)c3ccccc3)cc2)CC1,1.8,3.11
1.89,1.24,,CC(C(=O)N(C)c1ccc(N/C(=C2\C(=O)Nc3cc(Cl)ccc32)c2ccccc2)cc1)N1CCN(C)CC1 (racemic),0.84,1.43
> 10,> 10,,CC(C(=O)N(C)c1ccc(N/C(=C2\C(=O)Nc3cc(Cl)ccc32)c2ccccc2)cc1)N1CCSCC1 (racemic),> 10,> 10
1.74,1.49,,CC(C(=O)N(C)c1ccc(N/C(=C2\C(=O)Nc3cc(Br)ccc32)c2ccccc2)cc1)N1CCC(N(C)C)CC1 (racemic),1.11,1.59
1.74,2.04,,CC(C(=O)N(C)c1ccc(N/C(=C2\C(=O)Nc3cc(Cl)ccc32)c2ccccc2)cc1)N1CCCN(C)CC1 (racemic),0.69,2.2
3.74,5.34,,COC(=O)c1ccc2c(c1)NC(=O)/C2=C(\Nc1ccc(N(C)C(=O)C(C)N2CCN(C)CC2)cc1)c1ccccc1 (racemic),1.43,2.25
2.47,4.96,,COC(=O)c1ccc2c(c1)NC(=O)/C2=C(\Nc1ccc(N(C)C(=O)C(C)N2CCN(CCO)CC2)cc1)c1ccccc1 (racemic),1.09,1.37
